In US20040234527A1, “Peptides for use as translocation factors” (priority 2001, published 2004):
“And” between values parts separate entries of the source, which are not always exact repeats. Identical values can stand only once.

What was measured:
[1] = β-Galactosidase activity of the protein constructs before delivery (luminometer); assay type: biochemical; details: 80 ng protein; Table 6 (first day)
Method: (§1) The quantitative measurement of translocation was carried out by reading the activity of a β-Galactosidase enzyme that was included as part of a fusion protein with the translocation agents. When provided with the appropriate galactoside substrate, the enzyme deglycosylates the substrate leading to the accumulation of dioxetane. During a following incubation in a different buffer, the dioxetane becomes deprotonated and decomposes with emission of light (425 nm) that can be read using a luminometer. This system, therefore, provided a sensitive means of detecting the amount of the β-Galactosidase present in the samples, and ultimately, the amount of fusion protein delivered into the cells.
(§2) It was decided to start with the amount of each that gave a value close to 6×10^7 rlu, as this is the limit of the equipment's capacity. From that value, three consecutive ⅕ fold dilutions were made in each case.
(§3) Therefore, the original activity of the different proteins was also measured in parallel to the activity recovered after translocation, in order to make sure that all the proteins were standardised to an original maximum activity of around 6×10^7 rlu.

Hela cells = assay: β-Galactosidase activity recovered from cell extracts after lipofectin delivery or translocation (4 hours); assay type: cell-based
Method: as §1
The experiments were carried out using 8-well chamber slides. 3×10^4 Hela cells were seeded into each well, suplemented with 400 μl RPMI+10% FCS medium and incubated overnight at 37° C. and 5% CO2. The following day, the appropriate dilutions of protein were made into RPMI medium and added to the wells. Both lipofectin delivery and translocation experiments were carried out for 4 hours.
The experiments were carried out on two different days: the first day a negative control β-Galactosidase and the H1.4B-Bgal were tested, and the second day the antennapedia fusion (Antp-βgal) was tested. A lipofectin delivery of β-Galactosidase, provided by Roche, was performed on both days as positive control for delivery into the cells.
as §2, §3
The results after translocation were obtained by reading the β-Galactosidase recovered from the cell extracts and are shown in Tables 6 and 7. […] In any case, the values for the biggest amounts of β-Galactosidase protein are clearly lower than those obtained from the delivery systems.

Row | Substance | Protein activity [1] | Activity after transfection (Hela cells; 640 pg protein, Table 6 (first day)) | Activity after transfection (Hela cells; 3.2 ng protein, Table 6 (first day)) | Activity after transfection (Hela cells; 15 ng protein, Table 6 (first day)) [rlu] | Activity after transfection (Hela cells; 16 ng protein, Table 6 (first day)) [rlu] | Activity after transfection (Hela cells; 80 ng protein, Table 6 (first day)) | Activity after transfection (Hela cells; 1.6 ng protein, Table 6 (first day)) | Activity after transfection (Hela cells; 1.6 ng protein, Table 7 (second day)) | Activity after transfection (Hela cells; 8 ng protein, Table 6 (first day)) | Activity after transfection (Hela cells; 8 ng protein, Table 7 (second day)) | Activity after transfection (Hela cells; 40 ng protein, Table 6 (first day)) | Activity after transfection (Hela cells; 40 ng protein, Table 7 (second day))
1 | β-Galactosidase: β-Galactosidase enzyme without translocation agent, negative control | overload | 25.076 rlu and 28.710 rlu | 29.527 rlu and 35.227 rlu | 56.941 | 55.164 | 242.200 rlu and 298.589 rlu | – | – | – | – | – | –
2 | β-Gal positive control (Roche): β-Galactosidase provided by Roche, delivered with lipofectin reagent as positive control for delivery into the cells | – | – | – | – | – | – | 50.353 rlu and 47.212 rlu | 40.121 rlu and 33.578 rlu | 140.342 rlu and 162.319 rlu | 164.745 rlu and 157.913 rlu | 635.228 rlu and 675.640 rlu | 715.773 rlu and 744.405 rlu
